Measured values as given in PubChem BioAssay (NCI).
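These data come from cells grown in 96-well plates and exposed to compound for 48 hours at five concentrations. Abbreviation: GI50, concentration required for 50% inhibition of growth. TGI marks complete inhibition of growth.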

Key:
Experiment in all cases: growth of human tumour cells (NCI), 48 h
BT-549 breast = system: BT-549 breast
MDA-MB-231 breast = system: MDA-MB-231 breast
SK-MEL-28 melanoma = system: SK-MEL-28 melanoma
SK-OV-3 ovarian = system: SK-OV-3 ovarian
NCI-H522 lung = system: NCI-H522 lung
M14 melanoma = system: M14 melanoma
OVCAR-5 ovarian = system: OVCAR-5 ovarian
COLO 205 colon = system: COLO 205 colon

CC(=O)/C(Br)=C/c1ccc(Br)o1 gave a GI50 (BT-549 breast) of 5.94 µM, a TGI (BT-549 breast) of 18.6 µM and a GI50 (MDA-MB-231 breast) of 14.8 µM. The TGI (MDA-MB-231 breast) was 30 µM, the GI50 (SK-MEL-28 melanoma) was 2.87 µM and the TGI (SK-MEL-28 melanoma) was 9.18 µM. It also gave a GI50 (SK-OV-3 ovarian) of 26.8 µM, a TGI (SK-OV-3 ovarian) of over 65.8 µM and a GI50 (NCI-H522 lung) of 2.78 µM. It also gave a TGI (NCI-H522 lung) of 8.14 µM, a GI50 (M14 melanoma) of 4.71 µM and a TGI (M14 melanoma) of 13.7 µM. The GI50 (OVCAR-5 ovarian) was 13.7 µM, the TGI (OVCAR-5 ovarian) was 34.4 µM and the GI50 (COLO 205 colon) was 7.55 µM. It also gave a TGI (COLO 205 colon) of 20.9 µM.

COS(C)(=O)=O gave a TGI (BT-549 breast) of over 2 µM, a TGI (MDA-MB-231 breast) of over 2 µM and a TGI (SK-MEL-28 melanoma) of over 2 µM. The TGI (SK-OV-3 ovarian) was over 2 µM, the TGI (NCI-H522 lung) was over 2 µM and the TGI (M14 melanoma) was over 2 µM. For the same compound, the TGI (OVCAR-5 ovarian) was over 2 µM and the TGI (COLO 205 colon) was over 2 µM.

Compound Oc1[nH]c2ccccc2c1/C=c1/ccc2c(c1)N=C(c1ccc(C(F)(F)F)cc1)N=2 has a GI50 (BT-549 breast) of 2.04 µM, a TGI (BT-549 breast) of 9.25 µM and a GI50 (MDA-MB-231 breast) of 2.04 µM. For the same compound, the TGI (MDA-MB-231 breast) was 14 µM, the GI50 (SK-MEL-28 melanoma) was 3.11 µM and the TGI (SK-MEL-28 melanoma) was 16.2 µM. It also gave a GI50 (SK-OV-3 ovarian) of 12.1 µM, a TGI (SK-OV-3 ovarian) of 25 µM and a GI50 (NCI-H522 lung) of 1.97 µM. For the same compound, the TGI (NCI-H522 lung) was 13.5 µM, the GI50 (M14 melanoma) was 2.05 µM and the TGI (M14 melanoma) was 9.04 µM. It also gave a GI50 (OVCAR-5 ovarian) of 10.1 µM, a TGI (OVCAR-5 ovarian) of 22 µM and a GI50 (COLO 205 colon) of 9.89 µM. The TGI (COLO 205 colon) was 22.1 µM.

With CCN(CC)c1ccc(-c2cc(-c3cc(OC)c(OC)c(OC)c3)nc(N3CCC(O)CC3)c2C#N)cc1 the GI50 (BT-549 breast) was 0.911 µM, the TGI (BT-549 breast) was 3.89 µM and the GI50 (MDA-MB-231 breast) was 0.214 µM. For the same compound, the TGI (MDA-MB-231 breast) was 1.77 µM, the GI50 (SK-MEL-28 melanoma) was 0.879 µM and the TGI (SK-MEL-28 melanoma) was 3.76 µM. For the same compound, the GI50 (SK-OV-3 ovarian) was 1.8 µM, the TGI (SK-OV-3 ovarian) was over 31.6 µM and the GI50 (M14 melanoma) was 0.262 µM. For the same compound, the TGI (M14 melanoma) was 0.799 µM, the GI50 (OVCAR-5 ovarian) was 0.469 µM and the TGI (OVCAR-5 ovarian) was over 21.8 µM. It also gave a GI50 (COLO 205 colon) of 0.488 µM and a TGI (COLO 205 colon) of 2.11 µM.

For O=C(/C=C/c1ccccn1)c1ccc(OCc2nnc(-c3ccc(Cl)cc3)o2)cc1, the GI50 (BT-549 breast) was 1.92 µM, the TGI (BT-549 breast) was 3.46 µM and the GI50 (MDA-MB-231 breast) was 2.27 µM. The TGI (MDA-MB-231 breast) was 5.09 µM, the GI50 (SK-MEL-28 melanoma) was 1.77 µM and the TGI (SK-MEL-28 melanoma) was 3.36 µM. The GI50 (SK-OV-3 ovarian) was 3.82 µM, the TGI (SK-OV-3 ovarian) was 10.4 µM and the GI50 (NCI-H522 lung) was 1.89 µM. For the same compound, the TGI (NCI-H522 lung) was 3.94 µM, the GI50 (M14 melanoma) was 1.99 µM and the TGI (M14 melanoma) was 3.87 µM. The GI50 (OVCAR-5 ovarian) was 2.49 µM, the TGI (OVCAR-5 ovarian) was 4.89 µM and the GI50 (COLO 205 colon) was 2.23 µM. It also gave a TGI (COLO 205 colon) of 4.39 µM.

For COc1cc([N+](=O)[O-])c(S(=O)(=O)O)cc1-n1nc(C(=O)Nc2ccccc2)n[n+]1-c1cc(S(=O)(=O)[O-])c([N+](=O)[O-])cc1OC, the TGI (BT-549 breast) was over 100 µM, the TGI (SK-MEL-28 melanoma) was over 100 µM and the TGI (SK-OV-3 ovarian) was over 100 µM. The TGI (NCI-H522 lung) was over 100 µM, the TGI (M14 melanoma) was over 100 µM and the TGI (OVCAR-5 ovarian) was over 100 µM. The TGI (COLO 205 colon) was over 100 µM.

In the case of O=C(Nc1cc(Cl)cc(Cl)c1)c1cccc(NC2=C(Cl)C(=O)N(Cc3ccccc3)C2=O)c1, the GI50 (SK-MEL-28 melanoma) is reported as 54.7 µM, the TGI (SK-MEL-28 melanoma) is reported as over 100 µM and the GI50 (SK-OV-3 ovarian) is reported as 33.6 µM. For the same compound, the TGI (SK-OV-3 ovarian) was over 100 µM, the GI50 (NCI-H522 lung) was 28.5 µM and the TGI (NCI-H522 lung) was over 100 µM. For the same compound, the GI50 (M14 melanoma) was 35.8 µM, the TGI (M14 melanoma) was over 100 µM and the GI50 (OVCAR-5 ovarian) was over 100 µM. The TGI (OVCAR-5 ovarian) was over 100 µM, the GI50 (COLO 205 colon) was 31.5 µM and the TGI (COLO 205 colon) was over 100 µM.

COc1ccc(S(=O)(=O)Nc2c(/C=C\c3cc(OC)c(OC)c(OC)c3)ccc(OC)c2O)cc1 gave a GI50 (BT-549 breast) of 0.0501 µM, a TGI (BT-549 breast) of 47 µM and a GI50 (MDA-MB-231 breast) of 0.0503 µM. For the same compound, the TGI (MDA-MB-231 breast) was 2.35 µM, the GI50 (NCI-H522 lung) was 0.0202 µM and the TGI (NCI-H522 lung) was 0.0536 µM. For the same compound, the GI50 (OVCAR-5 ovarian) was 1.02 µM, the TGI (OVCAR-5 ovarian) was over 100 µM and the GI50 (COLO 205 colon) was 0.406 µM. It also gave a TGI (COLO 205 colon) of 1.91 µM.

Compound COc1ccc(-c2cn(-c3ccc(OC)c(OC)c3)c(=O)[nH]2)cc1 has a GI50 (MDA-MB-231 breast) of over 100 µM, a TGI (MDA-MB-231 breast) of over 100 µM and a GI50 (SK-MEL-28 melanoma) of over 100 µM. It also gave a TGI (SK-MEL-28 melanoma) of over 100 µM, a GI50 (SK-OV-3 ovarian) of over 100 µM and a TGI (SK-OV-3 ovarian) of over 100 µM. For the same compound, the GI50 (NCI-H522 lung) was over 100 µM, the TGI (NCI-H522 lung) was over 100 µM and the GI50 (M14 melanoma) was over 100 µM. It also gave a TGI (M14 melanoma) of over 100 µM, a GI50 (OVCAR-5 ovarian) of over 100 µM and a TGI (OVCAR-5 ovarian) of over 100 µM. For the same compound, the GI50 (COLO 205 colon) was over 100 µM and the TGI (COLO 205 colon) was over 100 µM.

COCCc1n(Cc2ccc3ccccc3c2)c2ccccc2[n+]1Cc1ccc2ccccc2c1 was tested, and the GI50 (MDA-MB-231 breast) was 0.536 µM, the TGI (MDA-MB-231 breast) was 1.94 µM and the GI50 (SK-MEL-28 melanoma) was 0.567 µM. The TGI (SK-MEL-28 melanoma) was 1.97 µM, the GI50 (SK-OV-3 ovarian) was 1.28 µM and the TGI (SK-OV-3 ovarian) was 2.59 µM. It also gave a GI50 (OVCAR-5 ovarian) of 1.11 µM and a TGI (OVCAR-5 ovarian) of 2.47 µM.
